From publication PMC3985611 (Chemistry & biology, 2013)

Target: Hsp70 (Homo sapiens, UniProt P0DMV8)
Assay: competition of YK5-biotin pull-down in cancer cells
Assay type: cell-based

Sequence of Hsp70 (P0DMV8 2-641): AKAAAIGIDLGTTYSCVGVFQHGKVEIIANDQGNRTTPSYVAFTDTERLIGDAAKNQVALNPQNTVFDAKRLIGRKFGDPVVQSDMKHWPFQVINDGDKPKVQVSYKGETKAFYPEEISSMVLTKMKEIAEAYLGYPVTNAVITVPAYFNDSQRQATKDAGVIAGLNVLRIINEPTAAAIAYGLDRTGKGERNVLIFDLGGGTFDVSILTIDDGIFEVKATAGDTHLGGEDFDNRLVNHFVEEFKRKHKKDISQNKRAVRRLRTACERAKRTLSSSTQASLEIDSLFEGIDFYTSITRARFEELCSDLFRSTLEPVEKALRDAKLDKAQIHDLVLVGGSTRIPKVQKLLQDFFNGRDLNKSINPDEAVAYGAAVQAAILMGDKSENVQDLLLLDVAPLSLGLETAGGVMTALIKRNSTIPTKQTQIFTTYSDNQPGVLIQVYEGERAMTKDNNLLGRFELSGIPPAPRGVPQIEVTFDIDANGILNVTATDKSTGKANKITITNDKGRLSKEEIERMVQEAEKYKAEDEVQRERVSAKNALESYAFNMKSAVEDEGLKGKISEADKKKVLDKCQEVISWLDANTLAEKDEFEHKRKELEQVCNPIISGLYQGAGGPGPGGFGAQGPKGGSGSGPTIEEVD

IC50: ~7 µM
Structure (SMILES): C=CC(=O)Nc1cc(N)nc(Sc2c(OC)nc(N3CCN(C)CC3)nc2OC)n1 [YK5]
